# How the values were obtained:
# [1] = Solubility in Cl free phosphate buffer pH 6.8; format: physicochemical; details: aqueous buffer; Cl free phosphate buffer (0.067 M) pH 6.8
# [2] = In-vitro clearance in rat liver microsomes (metabolic stability, compound depletion)
# [3] = In-vitro clearance in human liver microsomes (metabolic stability, compound depletion)
# human mGluR5 = molecular target: T1, human mGluR5 (Homo sapiens, UniProt P41594); experiment: In-vitro activity of mGluR5 antagonists (inhibition of agonist induced elevation of intracellular Ca2+ or inositol phosphate turnover at recombinant human mGluR5); format: cell-based; details: recombinant human mGluR5, antagonism
# T1 construct: expressed in transfected cells
# T1 sequence (P41594 21-1180 isoform P41594-2 limits assumed): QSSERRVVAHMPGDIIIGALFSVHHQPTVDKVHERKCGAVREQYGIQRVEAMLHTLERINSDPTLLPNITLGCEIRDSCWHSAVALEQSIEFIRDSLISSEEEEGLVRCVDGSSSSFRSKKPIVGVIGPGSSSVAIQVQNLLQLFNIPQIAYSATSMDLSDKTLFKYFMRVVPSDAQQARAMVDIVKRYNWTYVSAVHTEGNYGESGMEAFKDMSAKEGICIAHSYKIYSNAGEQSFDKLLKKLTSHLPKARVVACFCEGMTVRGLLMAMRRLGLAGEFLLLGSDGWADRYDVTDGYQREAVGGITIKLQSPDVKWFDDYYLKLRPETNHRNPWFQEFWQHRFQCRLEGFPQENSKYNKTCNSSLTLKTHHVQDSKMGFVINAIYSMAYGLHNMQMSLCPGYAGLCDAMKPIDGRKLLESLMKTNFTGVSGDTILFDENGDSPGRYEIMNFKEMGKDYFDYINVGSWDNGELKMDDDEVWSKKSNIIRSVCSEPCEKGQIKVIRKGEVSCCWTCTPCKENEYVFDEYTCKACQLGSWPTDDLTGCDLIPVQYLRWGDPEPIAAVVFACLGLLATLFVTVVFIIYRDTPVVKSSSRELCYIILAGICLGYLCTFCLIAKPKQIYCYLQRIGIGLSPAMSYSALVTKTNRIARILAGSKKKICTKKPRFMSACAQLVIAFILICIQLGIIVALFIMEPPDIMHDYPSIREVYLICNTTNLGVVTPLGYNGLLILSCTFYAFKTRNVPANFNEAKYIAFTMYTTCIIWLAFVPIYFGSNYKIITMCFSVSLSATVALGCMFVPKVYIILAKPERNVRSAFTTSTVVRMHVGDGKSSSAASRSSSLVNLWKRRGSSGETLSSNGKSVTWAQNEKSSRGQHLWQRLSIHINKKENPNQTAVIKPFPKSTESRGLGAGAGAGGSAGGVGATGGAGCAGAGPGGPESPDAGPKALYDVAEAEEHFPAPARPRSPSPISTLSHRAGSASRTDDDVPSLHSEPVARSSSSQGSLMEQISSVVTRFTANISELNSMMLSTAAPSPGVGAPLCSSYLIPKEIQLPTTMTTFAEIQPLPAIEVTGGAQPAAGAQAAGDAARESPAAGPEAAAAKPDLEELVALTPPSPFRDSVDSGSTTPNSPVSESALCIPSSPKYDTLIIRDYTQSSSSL
# [4] = microsomes
# [5] = microsomes; remark: listed apart in the source
solubility [1] [µg/mL],microsomal CLint at 1 μM [2] [µL/min/mg],microsomal CLint at 1 μM [3] [µL/min/mg],IC50 (human mGluR5) [nM],CL (rat) [4] [µL/min/mg],CL (human) [5] [µL/min/mg],Compound
9,3.4,–,–,–,–,"CCC(=O)O[C@@]1(C#Cc2cccc(C)c2)CCC[C@@H]2[C@H]1CCN2C(=O)OC [Example 14, (3aR,4S,7aR)-4-Propionyloxy-4-m-tolylethynyl-octahydro-indole-1-carboxylic acid methyl ester]"
51,277,113,–,–,–,"COC(=O)N1CC[C@@H]2[C@H]1CCC[C@@]2(O)C#Cc1cccc(C)c1 [Example 1.0, 4-hydroxy-4-m-tolylethynyl-octahydro-indole-1-carboxylic acid methyl ester, reference compound]"
108,533,94,–,–,–,"COC(=O)N1CC[C@@H]2[C@H]1CCC[C@]2(C#Cc1cccc(C)c1)OC(=O)CCN1CCOCC1 [Example 27, (3aR,4S,7aR)-4-(3-Morpholin-4-yl-propionyloxy)-4-m-tolylethynyl-octahydro-indole-1-carboxylic acid methyl ester]"
2,167,–,–,–,–,"COC(=O)N1CC[C@@H]2[C@H]1CCC[C@]2(C#Cc1cccc(C)c1)OC(=O)c1ccccn1 [Example 54, (3aR,4S,7aR)-4-(Pyridine-2-carbonyloxy)-4-m-tolylethynyl-octahydro-indole-1-carboxylic acid methyl ester]"
< 2,3.4,–,–,–,–,"CCCCCCC(=O)O[C@@]1(C#Cc2cccc(C)c2)CCC[C@@H]2[C@H]1CCN2C(=O)OC [Example 23, (3aR,4S,7aR)-4-Heptanoyloxy-4-m-tolylethynyl-octahydro-indole-1-carboxylic acid methyl ester]"
–,–,–,42,–,–,CCOC(=O)N1CC[C@@H]2[C@H]1CCC[C@@]2(O)C#Cc1cccc(C)c1 [Example 2.0]
–,302,36,–,–,–,"COC(=O)N1CC[C@@H]2[C@H]1CCC[C@]2(C#Cc1cccc(C)c1)OC(=O)CCN [Example 40, (3aR,4S,7aR)-methyl 4-(3-aminopropanoyloxy)-4-(m-tolylethynyl)octahydro-1H-indole-1-carboxylate]"
–,730,283,–,–,–,"COC(=O)N1CC[C@@H]2[C@H]1CCC[C@]2(C#Cc1cccc(C)c1)OC(=O)CCCN(C)C [Example 3, (3aR,4S,7aR)-4-(4-Dimethylamino-butyryloxy)-4-m-tolylethynyl-octahydro-indole-1-carboxylic acid methyl ester]"
43,26,–,–,–,–,"CCCN(CCC)C(=O)CCC(=O)O[C@@]1(C#Cc2cccc(C)c2)CCC[C@@H]2[C@H]1CCN2C(=O)OC [Example 63, (3aR,4S,7aR)-methyl 4-(4-(dipropylamino)-4-oxobutanoyloxy)-4-(m-tolylethynyl)octahydro-1H-indole-1-carboxylate]"
–,–,–,–,478,630,"(3aR,4S,7aR)-4-((S,R)-2-Amino-3-methyl-butyryloxy)-4-m-tolylethynyl-octahydro-indole-1-carboxylic acid methyl ester [Example 4]"
< 2,32,–,–,–,–,"CCCCCCCCCCCC(=O)O[C@@]1(C#Cc2cccc(C)c2)CCC[C@@H]2[C@H]1CCN2C(=O)OC [Example 19, (3aR,4S,7aR)-4-Dodecanoyloxy-4-m-tolylethynyl-octahydro-indole-1-carboxylic acid methyl ester]"
< 2,32,–,–,–,–,"CCCCCCCCC(=O)O[C@@]1(C#Cc2cccc(C)c2)CCC[C@@H]2[C@H]1CCN2C(=O)OC [Example 24, (3aR,4S,7aR)-4-Nonanoyloxy-4-m-tolylethynyl-octahydro-indole-1-carboxylic acid methyl ester]"
–,375,–,–,–,–,"CC[C@H](N)C(=O)O[C@@]1(C#Cc2cccc(C)c2)CCC[C@@H]2[C@H]1CCN2C(=O)OC [Example 30, (3aR,4S,7aR)-4-((S)-2-Amino-butyryloxy)-4-m-tolylethynyl-octahydro-indole-1-carboxylic acid methyl ester]"
< 2,385,–,–,–,–,"COC(=O)N1CC[C@@H]2[C@H]1CCC[C@]2(C#Cc1cccc(C)c1)OC(=O)c1ccncc1 [Example 45, (3aR,4S,7aR)-methyl 4-(isonicotinoyloxy)-4-(m-tolylethynyl)octahydro-1H-indole-1-carboxylate]"
–,4.4,–,–,–,–,"COC(=O)N1CC[C@@H]2[C@H]1CCC[C@]2(C#Cc1cccc(C)c1)OC(=O)c1cccc(C)c1 [Example 46, (3aR,4S,7aR)-methyl 4-(3-methylbenzoyloxy)-4-(m-tolylethynyl)octahydro-1H-indole-1-carboxylate]"
439,730,660,–,–,–,"COC(=O)N1CC[C@@H]2[C@H]1CCC[C@]2(C#Cc1cccc(C)c1)OC(=O)CCN1CCCC1 [Example 29, (3aR,4S,7aR)-4-(3-Pyrrolidin-1-yl-propionyloxy)-4-m-tolylethynyl-octahydro-indole-1-carboxylic acid methyl ester]"
–,355,315,–,–,–,"COC(=O)N1CC[C@@H]2[C@H]1CCC[C@]2(C#Cc1cccc(C)c1)OC(=O)[C@H](C)N [Example 9, (3aR,4S,7aR)-4-((S)-2-Amino-propionyloxy)-4-m-tolylethynyl-octahydro-indole-1-carboxylic acid methyl ester]"
< 2,5.4,–,–,–,–,"CCCCCCCCCC(=O)O[C@@]1(C#Cc2cccc(C)c2)CCC[C@@H]2[C@H]1CCN2C(=O)OC [Example 20, (3aR,4S,7aR)-4-Decanoyloxy-4-m-tolylethynyl-octahydro-indole-1-carboxylic acid methyl ester]"
–,262,–,–,–,–,"COC(=O)N1CC[C@@H]2[C@H]1CCC[C@]2(C#Cc1cccc(C)c1)OC(=O)[C@@H](N)Cc1ccccc1 [Example 31, (3aR,4S,7aR)-4-((S)-2-Amino-3-phenyl-propionyloxy)-4-m-tolylethynyl-octahydro-indole-1-carboxylic acid methyl ester]"
< 2,26,33,–,–,–,"CCCCCCCCCCCCCC(=O)O[C@@]1(C#Cc2cccc(C)c2)CCC[C@@H]2[C@H]1CCN2C(=O)OC [Example 16, (3aR,4S,7aR)-4-Tetradecanoyloxy-4-m-tolylethynyl-octahydro-indole-1-carboxylic acid methyl ester]"
< 2,478,–,–,–,–,"COC(=O)N1CC[C@@H]2[C@H]1CCC[C@]2(C#Cc1cccc(C)c1)OC(=O)c1cccnc1 [Example 51, (3aR,4S,7aR)-methyl 4-(nicotinoyloxy)-4-(m-tolylethynyl)octahydro-1H-indole-1-carboxylate]"
< 2,32,–,–,–,–,"CCCCCCCCCCCCC(=O)O[C@@]1(C#Cc2cccc(C)c2)CCC[C@@H]2[C@H]1CCN2C(=O)OC [Example 25, (3aR,4S,7aR)-4-m-Tolylethynyl-4-tridecanoyloxy-octahydro-indole-1-carboxylic acid methyl ester]"

Compound,solubility [1] [µg/mL],microsomal CLint at 1 μM [2] [µL/min/mg],microsomal CLint at 1 μM [3] [µL/min/mg],IC50 (human mGluR5) [nM],CL (rat) [4] [µL/min/mg],CL (human) [5] [µL/min/mg]
"COC(=O)N1CC[C@@H]2[C@H]1CCC[C@]2(C#Cc1cccc(C)c1)OC(=O)CN(C)C [Example 1, (3aR,4S,7aR)-4-(2-Dimethylamino-acetoxy)-4-m-tolylethynyl-octahydro-indole-1-carboxylic acid methyl ester]",–,195,14,–,–,–
"COC(=O)N1CC[C@@H]2[C@H]1CCC[C@]2(C#Cc1cccc(C)c1)OC(=O)[C@@H](N)c1ccccc1 [Example 41, (3aR,4S,7aR)-methyl 4-((S)-2-amino-2-phenylacetoxy)-4-(m-tolylethynyl)octahydro-1H-indole-1-carboxylate]",3,579,693,–,–,–
"COC(=O)N1CC[C@@H]2[C@H]1CCC[C@]2(C#Cc1cccc(C)c1)OC(=O)CN [Example 8, (3aR,4S,7aR)-4-(2-Amino-acetoxy)-4-m-tolylethynyl-octahydro-indole-1-carboxylic acid methyl ester]",125,87,187,–,–,–
"CNCC(=O)O[C@@]1(C#Cc2cccc(C)c2)CCC[C@@H]2[C@H]1CCN2C(=O)OC [Example 7, (3aR,4S,7aR)-4-(2-Methylamino-acetoxy)-4-m-tolylethynyl-octahydro-indole-1-carboxylic acid methyl ester]",–,346,433,–,–,–
"COC(=O)N1CC[C@@H]2[C@H]1CCC[C@]2(C#Cc1cccc(C)c1)OC(=O)CN1CCOCC1 [Example 26, (3aR,4S,7aR)-4-(2-Morpholin-4-yl-acetoxy)-4-m-tolylethynyl-octahydro-indole-1-carboxylic acid methyl ester]",138,533,770,–,–,–
